Data set [1] has as its target T1, pSTAT3-ubiquitin complexes in H1975 cells (Homo sapiens, UniProt P40763).
T1 construct: Post-transfection with either 100 nM CS3D or CS3M, H1975 were lysed in IP lysis buffer; endogenous in cells; host or cells: H1975
As to the kind of experiment: p-STAT3 immunoprecipitation and ubiquitin immunoblot. It is filed as cell-based. The following applies: H1975, 100 nM, 24 hr post-transfection. On the technique in general: Immunoblotting shows a protein as a band on a membrane.

The test system of data set [2] is c-Myc in H1975-derived tumors. As to the kind of experiment: c-Myc expression in H1975 xenograft tumors (Western blot). The data set is classed as in vivo, nude mice. The following applies: H1975 xenograft tumors, range among individual tumors. The protocol:
FIGS. 7C and 7D show c-Myc is suppressed after CS3D treatment in vivo. At the end of the treatments, tumors were harvested, whole cell lysates were prepared and RNA extracted for target gene analysis by Western blotting and RT-qPCR GAPDH protein was used as internal loading control for immunoblotting. CS3D treated tumors (C4, C5, and C6) from separate animals show a decrease in c-Myc expression level relative to the CS3M-treated group (C1, C2, and C3) in 201T. […] Data are shown as mean+/−SEM.
To determine how CS3D blocks NSCLC growth, Western blot, qRT-PCR, and immunohistochemical analysis were performed to determine expression of c-Myc in residual tumors. These analyses identified a substantial downregulation of c-Myc protein (FIGS. 7C and 7D) and mRNA levels (FIG. 7E) in individual CS3D-treated tumors relative to CS3M-treated tumors in both 201T and H1975 xenografts. Some variability in protein levels among individual xenografts was observed (FIGS. 7C and 7D); the densitometry units for c-Myc protein after normalizing for GAPDH levels ranged from 0.11-0.16 units for CS3D-treated xenografts and 0.25-0.46 units for CS3M-treated tumors in H1975. Similarly, in 201T-derived tumors these measurements ranged from 0.015 to 0.51 units for CS3D and 0.28 to 0.97 units for CS3M. Even with this variability, the effect across the groups in both cell lines was significant (P<0.05 for H1975 and P<0.042 for 201T xenografts), with a mean decrease of 65% and 70%, respectively.

Data set [3] relates to cleaved caspase-3 in H1975 xenografts. As to the kind of experiment: IHC of cleaved caspase-3 in H1975 xenografts at end of treatment. The data set is classed as in vivo, nude mice. The following applies: after last day of treatment (day 14). An excerpt:
For mRNA levels in tumor lysates, CS3D produced a 60-70% reduction of c-Myc gene expression relative to GAPDH compared to CS3M (FIG. 7E). […] Some cleaved caspase 3 staining was localized in nuclei, where caspase-3 is known to be active. Some caspase 3 staining was also evident in fibroblasts.
Immunohistochemical analysis: Tumors were excised for immunohistochemical (IHC) staining; 5-μm (micron) sections were cut from formalin-fixed paraffin-embedded tissue blocks, deparaffinized and rehydrated using successive washes of xylene followed by ethanol. Antigen retrieval was performed in a microwave oven (for 20 minutes) in an unmasking solution containing sodium citrate buffer followed by peroxidase blocking in 3% hydrogen peroxide. The sections were incubated in ABC blocking buffer (Vector laboratories Inc, Burlingame, California) for 1 hour at room temperature. Sections were then stained with H&E (hematoxylin and eosin) or subjected to sequential incubations with different primary antibodies and peroxidase-conjugated goat anti-rabbit secondary antibodies. […] Staining was graded as low (<30% positive cells per field, scored as 1), moderate (30-60% positive cells per field, scored as 2) or high (>60% positive cells per field, scored as 3).

The test system of data set [4] is Ki-67, p-STAT3, NF-κB in H1975 xenografts. As to the kind of experiment: IHC of H1975 xenografts after 5 daily iv injections. The data set is classed as in vivo, nude mice. The following applies: H1975 xenografts. The protocol: Because tumors treated for several weeks with the STAT3 decoy were largely composed of debris (as illustrated in FIG. 11), xenografts were examined after only 5 daily tail vein injections to determine what cellular changes were induced prior to collapse of the intracellular tumor structure. […] Tumors derived from H1975 xenografs were analyzed by immunohistochemical staining for p-STAT3 after 5 daily iv injections of either STAT3 decoy or mutant decoy. […] This effect is quantified in FIG. 9B.
Images were captured at 40× magnification. A shift from 41% of cells was observed and scored as high-grade staining with CS3M treatment to 13% with high-grade staining in the presence of CS3D, with corresponding increases in moderate- and low-grade staining in the STAT3 decoy treated group (FIG. 12B). […] Bright field images were captured at 40× magnification. Frequency of high-grade staining for p-STAT3 differed between CS3D and CS3M treatment groups (23% in CS3D-treated and 51% in CS3M treated, with corresponding increase in low-grade staining in presence of the active decoy (FIG. 9B). Significant degradation of p-STAT3 protein was detected by IHC in tumors was observed after treatment with CS3D. Percent of high staining fields was reduced from 48% to 22% while percent of fields with low staining increased, P<0.001 (FIG. 9B).
Immunohistochemical analysis: Tumors were excised for immunohistochemical (IHC) staining; 5-μm (micron) sections were cut from formalin-fixed paraffin-embedded tissue blocks, deparaffinized and rehydrated using successive washes of xylene followed by ethanol. Antigen retrieval was performed in a microwave oven (for 20 minutes) in an unmasking solution containing sodium citrate buffer followed by peroxidase blocking in 3% hydrogen peroxide. The sections were incubated in ABC blocking buffer (Vector laboratories Inc, Burlingame, California) for 1 hour at room temperature. Sections were then stained with H&E (hematoxylin and eosin) or subjected to sequential incubations with different primary antibodies and peroxidase-conjugated goat anti-rabbit secondary antibodies. The following primary antibodies were used (at the indicated dilutions): cleaved caspase-3 (#9664, Cell Signaling, 1:300), p-STAT3 (#9145, Cell Signaling, 1:400), Ki67 (#ab15580, Abcam, 1:1000). Sections were developed with DAB and counterstained with hematoxylin. Bright field microscopy was performed using Leica DM 4000 B LED microscope and images were captured at 20× and 40× magnification using LASv4.7 software. IHC analysis was done as a blinded study with 100 images from each treatment group graded as low, moderate, or high. Staining was graded as low (<30% positive cells per field, scored as 1), moderate (30-60% positive cells per field, scored as 2) or high (>60% positive cells per field, scored as 3).

Data set [5] relates to M1 macrophages, M2 macrophages, MDSCs. As to the kind of experiment: Flow cytometry of immune cells isolated from lungs of NNK mice. It is filed as in vivo. The following applies: NNK 4 weeks then 1 week of drug administration. From the text:
STAT3 also plays a central role in immune evasion. STAT3 specifically orchestrates immunosuppression by promoting M2 macrophage and myeloid-derived suppressor cells (MDSCs) activity while suppressing M1 macrophage function [Su et al. Int. J. Mol. Science 19: pll:E1803, 2018]. Thus STAT3 inhibition by CS3D should favor an antitumor immune response by enhancing M1 macrophage activity.
Lungs from mice were digested with RPMI media containing collagenase and DNase to obtained single cell suspension. The cells were counted and 1×10^6 cells were staining with fluorescent labeled CD45, CD11b, MHC II, Ly6C and F4/80. The labeled cells were gated and data acquired on LSR fortessa (BD Biosciences) and further analysed by Flowjo.
For orientation: In flow cytometry, cells or beads pass a laser one at a time.

In the next data set the target is STAT3 (Homo sapiens, UniProt P40763). The following applies: Leong et al., 2003; cited from earlier work.
Sequence of STAT3 (P40763 whole entry, species assumed): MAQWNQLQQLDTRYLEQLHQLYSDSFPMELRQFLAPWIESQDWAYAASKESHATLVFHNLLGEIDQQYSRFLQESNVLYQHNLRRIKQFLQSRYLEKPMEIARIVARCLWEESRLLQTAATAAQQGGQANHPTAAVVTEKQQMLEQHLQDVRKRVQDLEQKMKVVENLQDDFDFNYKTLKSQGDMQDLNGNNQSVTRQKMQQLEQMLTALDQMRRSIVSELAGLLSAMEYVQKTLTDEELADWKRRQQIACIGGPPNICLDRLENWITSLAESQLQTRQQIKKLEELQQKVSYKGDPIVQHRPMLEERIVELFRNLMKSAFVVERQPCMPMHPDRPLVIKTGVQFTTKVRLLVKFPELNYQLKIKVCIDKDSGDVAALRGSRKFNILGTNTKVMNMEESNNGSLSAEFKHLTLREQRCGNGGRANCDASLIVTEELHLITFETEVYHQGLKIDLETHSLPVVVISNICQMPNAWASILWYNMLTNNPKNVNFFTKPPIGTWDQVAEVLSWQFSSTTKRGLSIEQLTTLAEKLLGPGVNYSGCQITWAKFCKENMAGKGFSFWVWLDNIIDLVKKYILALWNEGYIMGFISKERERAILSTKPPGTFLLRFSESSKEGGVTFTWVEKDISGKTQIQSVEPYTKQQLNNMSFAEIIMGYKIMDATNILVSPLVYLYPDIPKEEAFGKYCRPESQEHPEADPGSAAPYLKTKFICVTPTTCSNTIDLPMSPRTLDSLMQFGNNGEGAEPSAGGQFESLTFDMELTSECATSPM

T1 sequence (P40763 2-770 limits assumed, one chain of several): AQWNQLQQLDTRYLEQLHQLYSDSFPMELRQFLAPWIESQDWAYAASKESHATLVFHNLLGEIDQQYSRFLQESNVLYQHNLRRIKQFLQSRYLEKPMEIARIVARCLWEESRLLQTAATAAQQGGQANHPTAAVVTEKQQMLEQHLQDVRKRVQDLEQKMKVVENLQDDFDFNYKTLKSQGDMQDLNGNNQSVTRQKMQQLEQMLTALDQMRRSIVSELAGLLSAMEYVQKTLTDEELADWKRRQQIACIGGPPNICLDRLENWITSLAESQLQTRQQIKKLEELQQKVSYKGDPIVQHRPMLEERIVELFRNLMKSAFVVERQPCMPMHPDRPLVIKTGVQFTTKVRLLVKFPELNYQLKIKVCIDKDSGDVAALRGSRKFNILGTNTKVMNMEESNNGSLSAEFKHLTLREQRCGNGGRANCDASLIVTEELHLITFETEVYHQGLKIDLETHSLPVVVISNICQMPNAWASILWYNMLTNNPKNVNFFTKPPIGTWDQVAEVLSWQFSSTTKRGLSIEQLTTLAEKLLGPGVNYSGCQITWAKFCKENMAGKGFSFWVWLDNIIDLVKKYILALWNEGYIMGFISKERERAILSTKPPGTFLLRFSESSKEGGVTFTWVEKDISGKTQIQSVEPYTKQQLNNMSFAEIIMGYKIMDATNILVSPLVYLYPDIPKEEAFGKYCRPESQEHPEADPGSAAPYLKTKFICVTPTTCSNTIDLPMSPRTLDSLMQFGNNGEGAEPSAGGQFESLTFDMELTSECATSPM

In the case of “CS3M: mutant inactive control of CS3D, T-A base pair replacing G-C base pair at position 9 (SEQ ID NO. 6); unable to bind STAT3 (GATTTAAGGGAAATGCSCATTTCCC; cyclic decoy, mutant control, further chemistry not given here) [reference compound]”, the “ratio of pSTAT3-ubiquitin complex to STAT3 (densitometry)” value in data set [1] was 0.74. Also, the “c-Myc protein densitometry normalized for GAPDH” value in data set [2] is listed as 0.25-0.46 units. Further, in data set [3], the “fields scoring high level of cleaved caspase-3” value came to 10%. Moreover, the Ki-67 high-grade staining in data set [4] (5 daily injections) is 41%. Further, in data set [4] (5 daily iv injections), the “frequency of high-grade staining for p-STAT3” value came out at 51%. Moreover, the “percent of high staining fields for p-STAT3” value in data set [4] (second statement in b134 (FIG. 9B)) is given as 48%. In data set [5], the M2 macrophages is given as 18.3% and the MDSCs came out at 4.56%. In addition, the “binding to STAT3” value with STAT3 is listed as “unable to bind STAT3”.

The values are drawn from patent publication US11932850B2, “Cancer chemoprevention with STAT3 blockers” (Jill M. Siegfried, LLC, priority 2018, dated 2024).
